US12552772B2, “2-pyrazole anilines and related analogs for inhibiting YAP/TAZ-TEAD” (KATHOLIEKE UNIVERSITEIT LEUVEN, priority 2021, dated 2026)

What was measured:
Type in all cases: cell-based
[1] = test system: YAP/TAZ-TEAD transcription; assay: Reporter gene assay for measuring the inhibition of YAP/TAZ-TEAD transcription (TEAD-responsive element luciferase reporter in Hek293T cells); settings: 24 hours incubation
How it was run: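 Percent inhibition, scaled between vehicle (0%) and a positive control inhibitor (100%), came from SteadyLite luciferase signal after 24 h compound exposure at 37 °C/5% CO2. Cells: Hek293T transiently carrying a TEAD-responsive luciferase reporter; EC50 derived.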

NCI-H226 = assay: Mesothelioma cell line proliferation assay (ATPlite), NCI-H226; settings: NCI-H226 cells, 6 days, ATPlite cell viability
Method: (§1) Mesothelioma cell lines, NCI-H226 and NCI-H2052 (all sourced from the ATCC cell culture collection) are plated in 96-well plates (Corning® 96 Well White Polystyrene Microplate clear flat bottom, white polystyrene (TC-Treated)), at 1500 cells/well in full medium (RPMI 1640 ATCC modification with L-glutamine, HEPES, Phenol Red, Sodium Pyruvate, High glucose, Low sodium bicarbonate and 10% fetal bovine serum). Cells are incubated overnight at 37° C. in an incubator with 5% CO2. Then compounds, dissolved in DMSO, are added in dose-response. Cells are incubated with compound dilutions for another 6 days at 37° C. in an incubator with 5% CO2. Cell viability is quantitated using the ATPlite kit (Perkin-Elmer) and the luminescence is read-out using an Envision instrument (Perkin-Elmer). The amount of relative light units produced using the ATPlite kit is used to calculated percent of inhibition.
(§2) The activities of example compounds tested are depicted in the table below. The activity ranges A, B and C refer to EC50 values in the mesothelioma cell line proliferation assay as described as follows: “A”: EC50<1 μM; “B”: 1 μM s EC50≤10 μM and “C”: EC50>10 μM. NT: not tested.

NCI-H2052 = assay: Mesothelioma cell line proliferation assay (ATPlite), NCI-H2052; settings: NCI-H2052 cells, 6 days, ATPlite cell viability
Method: as §1, §2

Row | SMILES | EC50 ([1]; Homo sapiens, HEK-293T) [µM] | EC50 (NCI-H226; Homo sapiens, 144 h) [µM] | EC50 (NCI-H2052; Homo sapiens, NCI-H2052, 144 h) [µM] | EC50 (NCI-H2052) [µM] | EC50 [1] [µM] | EC50 (NCI-H226) [µM]
1 | C=CC(=O)NCc1cnc(C2CCC(F)(F)CC2)cc1-c1ccn(C(F)F)n1 [Cpd. No. 223, N-((6-(4,4-difluorocyclohexyl)-4-(1-(difluoromethyl)-1H-pyrazol-3-yl)pyridin-3-yl)methyl)acrylamide] | < 1 | < 1 | 1 to 10 |  |  | 
2 | C=CC(=O)NCc1cc(-c2ccc(F)cc2)cc(-c2ccn(C(F)F)n2)n1 [Cpd. No. 225, N-((6-(1-(difluoromethyl)-1H-pyrazol-3-yl)-4-(4-fluorophenyl)pyridin-2-yl)methyl)acrylamide] | < 1 | < 1 | 1 to 10 |  |  | 
3 | C=CC(=O)NCc1cc(C2CCC(F)(F)CC2)cc(-c2ccn(C(F)F)n2)n1 [Cpd. No. 228, N-((4-(4,4-difluorocyclohexyl)-6-(1-(difluoromethyl)-1H-pyrazol-3-yl)pyridin-2-yl)methyl)acrylamide] | < 1 | < 1 | > 10 |  |  | 
4 | C=CC(=O)NCc1cnc(-c2ccc(F)cc2)cc1-c1cc2n(n1)CCCC2 [Cpd. No. 231, N-((6-(4-fluorophenyl)-4-(4,5,6,7-tetrahydropyrazolo[1,5-a]pyridin-2-yl)pyridin-3-yl)methyl)acrylamide] | < 1 | < 1 | > 10 |  |  | 
5 | C=CC(=O)NCc1cnc(-c2ccc(F)cc2)cc1-n1nnc(C)n1 [Cpd. No. 249, N-((6-(4-fluorophenyl)-4-(5-methyl-2H-tetrazol-2-yl)pyridin-3-yl)methyl)acrylamide] | < 1 | < 1 | 1 to 10 |  |  | 
6 | C=CC(=O)NCc1cnc(-c2ccc(F)cc2)nc1-c1ccn(C)n1 [Cpd. No. 253, N-((2-(4-fluorophenyl)-4-(1-methyl-1H-pyrazol-3-yl)pyrimidin-5-yl)methyl)acrylamide] | < 1 | < 1 | < 1 |  |  | 
7 | C=CC(=O)NCc1cc(-c2ccc(F)cc2)nc(-c2ccn(C(F)F)n2)n1 [Cpd. No. 255, N-((2-(1-(difluoromethyl)-1H-pyrazol-3-yl)-6-(4-fluorophenyl)pyrimidin-4-yl)methyl)acrylamide] | < 1 | < 1 | 1 to 10 |  |  | 
8 | C=CC(=O)N1CCC(c2ccc(-c3ccc(F)cc3)cc2-c2ccn(C)n2)C1 (stereo not shown) [Cpd. No. 258, 1-(3-(4′-fluoro-3-(1-methyl-1H-pyrazol-3-yl)-[1,1′-biphenyl]-4-yl)pyrrolidin-1-yl)prop-2-en-1-one] | < 1 | < 1 | < 1 |  |  | 
9 | C=CC(=O)N1CCC(c2ccc(-c3ccc(F)cc3)cc2-c2ccn(C(F)F)n2)C1 (stereo not shown) [Cpd. No. 261, 1-(3-(3-(1-(difluoromethyl)-1H-pyrazol-3-yl)-4′-fluoro-[1,1′-biphenyl]-4-yl)pyrrolidin-1-yl)prop-2-en-1-one] | < 1 | < 1 |  | 1 to 10 |  | 
10 | C=CC(=O)N1CCC(c2ccc(-c3ccc(F)cc3)cc2-c2ccn(C(F)F)n2)C1 (stereo not shown) [Cpd. No. 261-En1, 1-(3-(3-(1-(difluoromethyl)-1H-pyrazol-3-yl)-4′-fluoro-[1,1′-biphenyl]-4-yl)pyrrolidin-1-yl)prop-2-en-1-one] |  |  |  | 1 to 10 | < 1 | < 1
11 | C=CC(=O)N1CCC(c2ccc(-c3ccc(F)cc3)cc2-c2ccn(C(F)F)n2)C1 (stereo not shown) [Cpd. No. 261-En2, 1-(3-(3-(1-(difluoromethyl)-1H-pyrazol-3-yl)-4′-fluoro-[1,1′-biphenyl]-4-yl)pyrrolidin-1-yl)prop-2-en-1-one] |  |  |  | > 10 | < 1 | < 1
12 | C=CC(=O)N1CCC(c2cnc(-c3ccc(F)cc3)cc2-c2ccn(C(F)F)n2)C1 (stereo not shown) [Cpd. No. 262, 1-(3-(4-(1-(difluoromethyl)-1H-pyrazol-3-yl)-6-(4-fluorophenyl)pyridin-3-yl)pyrrolidin-1-yl)prop-2-en-1-one] | < 1 | < 1 |  | 1 to 10 |  | 
13 | C=CC(=O)N1CCC(c2cnc(-c3ccc(F)cc3)cc2-c2ccn(C(F)F)n2)C1 (stereo not shown) [Cpd. No. 262-En1, 1-(3-(4-(1-(difluoromethyl)-1H-pyrazol-3-yl)-6-(4-fluorophenyl)pyridin-3-yl)pyrrolidin-1-yl)prop-2-en-1-one] |  |  |  | 1 to 10 | < 1 | < 1
14 | C=CC(=O)N1CCC(c2cnc(-c3ccc(F)cc3)cc2-c2ccn(C(F)F)n2)C1 (stereo not shown) [Cpd. No. 262-En2, 1-(3-(4-(1-(difluoromethyl)-1H-pyrazol-3-yl)-6-(4-fluorophenyl)pyridin-3-yl)pyrrolidin-1-yl)prop-2-en-1-one] |  |  |  | > 10 | < 1 | < 1
15 | C=CC(=O)Nc1cncc(-c2cccc(-c3ccn(Cc4ccccc4)n3)c2)c1 [compound 004, N-(5-(3-(1-benzyl-1H-pyrazol-3-yl)phenyl)pyridin-3-yl)acrylamide] | < 1 | 1 to 10 |  |  |  | 
16 | NS(=O)(=O)CCNc1ccc(-c2ccccc2)cc1-c1ccn(Cc2cccnc2)n1 [compound 054, 2-((3-(1-(pyridin-3-ylmethyl)-1H-pyrazol-3-yl)-[1,1′-biphenyl]-4-yl)amino)ethane-1-sulfonamide] | < 1 | < 1 |  |  |  | 
17 | C=CC(=O)NCCNc1ccc(-c2ccccc2)cc1-c1ccn(Cc2cccnc2)n1 [compound 075, N-(2-((3-(1-(pyridin-3-ylmethyl)-1H-pyrazol-3-yl)-[1,1′-biphenyl]-4-yl)amino)ethyl)acrylamide] | 1 to 20 | < 1 |  |  |  | 
18 | CNS(=O)(=O)CCNc1ccc(-c2cccc(F)c2)cc1-c1ccn(Cc2cccnc2)n1 [compound 088] | < 1 | > 10 |  |  |  | 
19 | CNS(=O)(=O)CCNc1ccc(-c2ccc(Cl)cc2)cc1-c1ccn(C)n1 [compound 121, 2-((4′-chloro-3-(1-methyl-1H-pyrazol-3-yl)-[1,1′-biphenyl]-4-yl)amino)-N-methylethane-1-sulfonamide] | < 1 | 1 to 10 |  |  |  | 
20 | C=CC(=O)NCc1ccc(-c2ccccc2)cc1-c1ccn(C)n1 [compound 135, N-((3-(1-methyl-1H-pyrazol-3-yl)-[1,1′-biphenyl]-4-yl)methyl)acrylamide] | < 1 | < 1 |  |  |  | 
21 | CCC(=O)NCc1cnc(-c2ccc(F)cc2)cc1-n1ncc(C)n1 [compound 245, N-((6-(4-fluorophenyl)-4-(4-methyl-2H-1,2,3-triazol-2-yl)pyridin-3-yl)methyl)propionamide] | < 1 |  |  |  |  | 
22 | C=CC(=O)NCc1cnc(-c2ccc(F)cc2)cc1-n1ccc(C(F)(F)F)n1 [compound 246, N-((6-(4-fluorophenyl)-4-(3-(trifluoromethyl)-1H-pyrazol-1-yl)pyridin-3-yl)methyl)acrylamide] | > 20 |  |  |  |  | 
23 | C=CC(=O)NCc1cnc(-c2ccc(F)cc2)cc1-n1ccc(C2CC2)n1 [compound 247, N-((4-(3-cyclopropyl-1H-pyrazol-1-yl)-6-(4-fluorophenyl)pyridin-3-yl)methyl)acrylamide] | < 1 |  |  |  |  | 
24 | C=CC(=O)NCc1cnc(-c2ccc(F)cc2)cc1-n1cc(C(F)(F)F)cn1 [compound 248, N-((6-(4-fluorophenyl)-4-(4-(trifluoromethyl)-1H-pyrazol-1-yl)pyridin-3-yl)methyl)acrylamide] | < 1 |  |  |  |  | 
25 | C=CC(=O)NCc1cnc(-c2ccc(F)cc2)cc1-n1nnnc1C [compound 250, N-((6-(4-fluorophenyl)-4-(5-methyl-1H-tetrazol-1-yl)pyridin-3-yl)methyl)acrylamide] | > 20 |  |  |  |  | 
26 | CCC(=O)NCc1cnc(-c2ccc(F)cc2)cc1-n1nnc(C)n1 [compound 251, N-((6-(4-fluorophenyl)-4-(5-methyl-2H-tetrazol-2-yl)pyridin-3-yl)methyl)propionamide] | > 20 |  |  |  |  | 
27 | CCC(=O)NCc1cnc(-c2ccc(F)cc2)cc1-n1nnnc1C [compound 252, N-((6-(4-fluorophenyl)-4-(5-methyl-1H-tetrazol-1-yl)pyridin-3-yl)methyl)propionamide] | > 20 |  |  |  |  | 
28 | CCC(=O)N1CCC(c2ccc(-c3ccc(F)cc3)cc2-c2ccn(C)n2)C1 (stereo not shown) [compound 259, 1-(3-(4′-fluoro-3-(1-methyl-1H-pyrazol-3-yl)-[1,1′-biphenyl]-4-yl)pyrrolidin-1-yl)propan-1-one] | 1 to 20 |  |  |  |  | 
29 | CS(=O)(=O)N1CCC(c2ccc(-c3ccc(F)cc3)cc2-c2ccn(C(F)F)n2)C1 (stereo not shown) [compound 260, 1-(difluoromethyl)-3-(4′-fluoro-4-(1-(methylsulfonyl)pyrrolidin-3-yl)-[1,1′-biphenyl]-3-yl)-1H-pyrazole] | > 20 |  |  |  |  | 
30 | CNS(=O)(=O)N1CCC(c2cnc(-c3ccc(F)cc3)cc2-c2ccn(C(F)F)n2)C1 (stereo not shown) [compound 263, 3-(4-(1-(difluoromethyl)-1H-pyrazol-3-yl)-6-(4-fluorophenyl)pyridin-3-yl)-N-methylpyrrolidine-1-sulfonamide] | > 20 |  |  |  |  | 
